Measurements reported in patent US20240115654A1, “INTRAVENOUS ADMINISTRATION OF ENGINEERED ANTIMICROBIAL AMPHIPHILIC PEPTIDES” (priority 2021, published 2024).
Peptide text beside a SMILES is read from it.

Experiment: clinical
Settings: human, plasma, iv, Plasma Concentration by Nominal Time from Start of Infusion; for level at 0.5 h: 0.50 h
[1] = 0.05 mg/kg, Cohort 1, 0.05 mg/kg IV 1-hr infusion, individual subject
[2] = 0.05 mg/kg, Cohort 1, 0.05 mg/kg IV 1 hr infusion, individual subjects
[3] = 0.05 mg/kg, Mean, Cohort 1, 0.05 mg/kg IV 1-hr infusion, cohort mean
[4] = 0.05 mg/kg, Mean, Cohort 1, 0.05 mg/kg IV 1 hr infusion, cohort mean N 6
[5] = 0.5 mg/kg, Mean, Cohort 4, 0.5 mg/kg IV 2-hr infusion, cohort mean
[6] = 0.5 mg/kg, Mean, Cohort 4, 0.5 mg/kg IV, infusion 2 hours, cohort mean N 6
[7] = 1 mg/kg, Mean, Cohort 5, 1 mg/kg IV 4-hr infusion, cohort mean
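Note: phase 1 study in human subjects given one IV dose of the peptide, enrolled in sequential ascending-dose cohorts and randomized to peptide or placebo.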

Description: Administration was a single 1-hour infusion.
Subjects were enrolled in sequential cohorts of peptide ascending dose levels and randomly assigned to receive a single IV administration of either peptide or placebo over 1 to 2 hours. […] In addition, the infusion volume was adjusted for Cohort 4 to maintain drug concentrations in line with Cohort 2
Blood samples for PK assessment were collected at pre-dose, at the midpoint of infusion, within 1 minute after the end-of-infusion and at 0.5, 1, 2, 4, 6, 8, 12, 20, 24, 36 and 48 hours after the end-of-infusion.
The pharmaceutical composition was stored at 2° C. to 8° C. for up to 14 days and then 15° C. to 25° C. for up to 48 hours for dosing.
Subjects were enrolled in sequential cohorts of peptide ascending dose levels and randomly assigned to receive a single IV administration of either peptide or placebo over 1 to 2 hours.

Compound: CC(C)[C@H](NC(=O)[C@H](Cc1c[nH]c2ccccc12)NC(=O)[C@H](CCCNC(=N)N)NC(=O)[C@H](CCCNC(=N)N)NC(=O)[C@@H](NC(=O)[C@@H](NC(=O)[C@H](CCCNC(=N)N)NC(=O)[C@@H](NC(=O)[C@@H](NC(=O)[C@H](CCCNC(=N)N)NC(=O)[C@H](CCCNC(=N)N)NC(=O)[C@H](Cc1c[nH]c2ccccc12)NC(=O)[C@@H](NC(=O)[C@H](CCCNC(=N)N)NC(=O)[C@H](CCCNC(=N)N)NC(=O)[C@@H](NC(=O)[C@H](CCCNC(=N)N)NC(=O)[C@H](CCCNC(=N)N)NC(=O)[C@@H](NC(=O)[C@H](Cc1c[nH]c2ccccc12)NC(=O)[C@H](CCCNC(=N)N)NC(=O)[C@@H](N)CCCNC(=N)N)C(C)C)C(C)C)C(C)C)C(C)C)C(C)C)C(C)C)C(C)C)C(=O)N[C@@H](CCCNC(=N)N)C(=O)N[C@@H](CCCNC(=N)N)C(N)=O [SEQ ID NO: 1] (H-RRWVRRVRRVWRRVVRVVRRWVRR-NH2)
- level at 0 h [1]: 6.03 ng/mL
- level at 0.5 h [1]: 166 ng/mL
- level at 21 h [1]: 12.6 ng/mL
- level at 37 h [1]: 6.59 ng/mL
- level at 0 h [2]: 6.03 ng/mL
- level at 0.5 h [2]: 166 ng/mL
- level at 21 h [2]: 12.6 ng/mL
- level at 37 h [2]: 6.59 ng/mL
- level at 0 h [3]: 1.01 ng/mL
- level at 0.5 h [3]: 189 ng/mL
- level at 1 h [3]: 256 ng/mL
- level at 2 h [3]: 108 ng/mL
- level at 3 h [3]: 96.4 ng/mL
- level at 5 h [3]: 79.5 ng/mL
- level at 7 h [3]: 62.5 ng/mL
- level at 9 h [3]: 56.9 ng/mL
- level at 13 h [3]: 31.5 ng/mL
- level at 21 h [3]: 15.4 ng/mL
- level at 25 h [3]: 14.8 ng/mL
- level at 37 h [3]: 1.1 ng/mL
- level at […] [3]: 134 ng/mL
- level at 0 h [4]: 1.01 ng/mL
- level at 0.5 h [4]: 189 ng/mL
- level at 1 h [4]: 256 ng/mL
- level at 2 h [4]: 108 ng/mL
- level at 3 h [4]: 96.4 ng/mL
- level at 5 h [4]: 79.5 ng/mL
- level at 7 h [4]: 62.5 ng/mL
- level at 9 h [4]: 56.9 ng/mL
- level at 13 h [4]: 31.5 ng/mL
- level at 21 h [4]: 15.4 ng/mL
- level at 25 h [4]: 14.8 ng/mL
- level at 37 h [4]: 1.1 ng/mL
- level at […] [4]: 134 ng/mL
- level at 50 h (0.5 mg/kg, Cohort 4, 0.5 mg/kg IV 2-hr infusion, individual subject): 45.9 ng/mL
- level at 1 h [5]: 1210 ng/mL
- level at 2 h [5]: 1830 ng/mL
- level at 3 h [5]: 616 ng/mL
- level at 4 h [5]: 451 ng/mL
- level at 6 h [5]: 330 ng/mL
- level at 8 h [5]: 249 ng/mL
- level at 10 h [5]: 219 ng/mL
- level at 14 h [5]: 134 ng/mL
- level at 22 h [5]: 76.3 ng/mL
- level at 26 h [5]: 72.5 ng/mL
- level at 38 h [5]: 41.2 ng/mL
- level at 50 h [5]: 25.7 ng/mL
- level at […] [5]: 877 ng/mL
- level at 1 h [6]: 1210 ng/mL
- level at 2 h [6]: 1830 ng/mL
- level at 3 h [6]: 616 ng/mL
- level at 4 h [6]: 451 ng/mL
- level at 6 h [6]: 330 ng/mL
- level at 8 h [6]: 249 ng/mL
- level at 10 h [6]: 219 ng/mL
- level at 14 h [6]: 134 ng/mL
- level at 22 h [6]: 76.3 ng/mL
- level at 26 h [6]: 72.5 ng/mL
- level at 38 h [6]: 41.2 ng/mL
- level at 50 h [6]: 25.7 ng/mL
- level at […] [6]: 877 ng/mL
- level at 2 h [7]: 2040 ng/mL
- level at 4 h [7]: 2650 ng/mL
- level at 5 h [7]: 1350 ng/mL
- level at 6 h [7]: 1130 ng/mL
- level at 8 h [7]: 803 ng/mL
- level at 10 h [7]: 604 ng/mL
- level at 12 h (1 mg/kg, Mean, Cohort 5, 1 mg/kg IV 4-hr infusion, 12 h, cohort mean): 487 ng/mL
- level at 16 h (1 mg/kg, Mean, Cohort 5, 1 mg/kg IV 4-hr infusion, 16 h, cohort mean): 287 ng/mL
- level at 24 h (1 mg/kg, Mean, Cohort 5, 1 mg/kg IV 4-hr infusion, 24 h, cohort mean): 167 ng/mL
- level at 28 h (1 mg/kg, Mean, Cohort 5, 1 mg/kg IV 4-hr infusion, 28 h, cohort mean): 180 ng/mL
- level at 40 h (1 mg/kg, Mean, Cohort 5, 1 mg/kg IV 4-hr infusion, 40 h, cohort mean): 98.7 ng/mL
- level at 52 h (1 mg/kg, Mean, Cohort 5, 1 mg/kg IV 4-hr infusion, 52 h, cohort mean): 99.6 ng/mL
- level at […] [7]: 1810 ng/mL
